US8796320B2, “1,3,4-Oxadiazole-2-carboxamide compound” (General Incorporated Association Pharma Valley Project …, priority 2009, dated 2014)

Columns and labels:
[1] = test system: human lymphoma SCC-3 cells; test: Evaluation using human lymphoma-transplanted nude mice; type: in vivo, nude mouse; conditions: 80 mg/kg orally once a day for 5 days, p < 0.05
Experimental: 1×10^6 human lymphoma SCC-3 cells (containing Matrigel) were subcutaneously transplanted to the flank part of each 6-week-old male nude mouse (BALB/cA-nu/nu, CLEA Japan, Inc.). After the transplantation, the tumor volumes [major axis (mm) and minor axis (mm)] of the SCC-3 cancer-bearing mice were measured using an electronic vernier caliper (CD-10, Mitutoyo Corp.), and tumor volumes [mm^3: (major axis)×(minor axis)^2/2] were calculated. SCC-3 cancer-bearing mice whose tumor volume reached 50 to 300 mm^3 were selected and divided based on the tumor volumes into groups each containing 5 individuals. A test compound was suspended in a 0.5% methylcellulose solution and orally administered at a dose of 0.01 mL/g body weight once a day for 5 days (Day 0 (administration initiation day) to Day 4). To a control group, none was administered. The tumor volumes of the SCC-3 cancer-bearing mice were measured every day from the initiation of test compound administration to evaluate antitumor effect. The antitumor effect was assessed by calculating T/C (%) values according to the following formula: • V: tumor volume on every assay day • V0: tumor volume on the administration initiation day (V/V0 of the test compound group)/(V/V0 of the control group)×100
Validity determination criteria for this system adopted the method of Inaba, et al. (Cancer, 1989, 64, 1577-1582).

MDA-MB-468 = MDA-MB-468 cell growth inhibitory activity; type: cell-based; conditions: Homo sapiens; compound at 20 μM; MDA-MB-468, 72 hours
Experimental: MDA-MB-468 diluted with phenol red-free DMEM/F-12 (GIBCO; 10% FBS, 20 units/ml penicillin/streptomycin) was inoculated at a concentration of 2000 cells/well to a 96-well plate (Greiner Bio-One) and cultured overnight at 37° C. in the presence of 5% CO2. Then, a test sample solution (containing 2 (v/v)% DMSO) adjusted to 10 μM was added thereto at a concentration of 10 μL/well and contacted with the cells at 37° C. for 72 hours in the presence of 5% CO2. Each well was washed three times with a medium. Then, after addition of 100 μL/well of a medium and 20 μL/well of CellTiter 96 AQueous, One Solution Reagent (Promega Corp.), the cells were incubated at 37° C. for 2 hours in the presence of 5% CO2. Absorbance at 495 nm was measured using Multiplate reader (Molecular Devices, Inc.), and the rate of inhibition of cell growth was calculated according to the following formula: Rate of inhibition of cell growth (%)=100−100×(Abschem−bkgd)/(AbsDMSO−bkgd) • Abschem: absorbance obtained by the addition of a test sample • AbsDMSO: absorbance obtained by the addition of only a solvent for test sample dissolution • bkgd: absorbance obtained by the addition of CellTiter 96 AQueous One Solution Reagent to a medium for cell culture
The test results were indicated in the rate of inhibition of cell growth by each compound at a concentration of 20 μM.

STAT3 = STAT3 transcription inhibition test (reporter gene method); type: cell-based; conditions: Homo sapiens; compound at 100 μM; STAT3 reporter HeLa stable cell line, oncostatin M 10 ng/mL, 4 hours; read-out: STAT3 transcription inhibitory activity (%)
Procedure, shortened: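 STAT3 reporter HeLa stable cells were preincubated 1 h with compound, then stimulated with oncostatin M (10 ng/mL final) for 4 h at 37° C. Luciferase activity normalized to unstimulated and solvent-only controls; reported as percent inhibition of STAT3 transcription at 100 μM.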

[2] = test system: Human lymphoma SCC-3 cells; test: SCC-3 cell growth inhibition test (MTT method); type: cell-based; conditions: 72-hour culture
Experimental: Human lymphoma SCC-3 cells purchased from Japan Health Sciences Foundation were cultured for […] at a density of 5000 cells/well in a 96-well plate with RPMI1640 (Sigma-Aldrich Corp.) containing 10% fetal bovine serum (FBS; GIBCO) as a culture medium.
Simultaneously with cell inoculation, each test compound diluted to various concentrations with an RPMI medium was added to each well. After 72-hour culture, cell growth inhibitory activity was determined by the MTT method (J. Immunol. Methods, 1993, 65, 581-593) using a microplate reader (NJ-2300, BioTek Instruments, Inc.).
The test results were indicated in a concentration (IC50) at which 50% cell growth was inhibited.

| IC50 [2] | SMILES | T/C (%) ([1]; day 18 after administration) | inhibition at 20 µM (MDA-MB-468) | inhibition at 100 µM (STAT3) | T/C (%) ([1]; day 6 after administration) | T/C (%) ([1]; day 11 after administration) |
| --- | --- | --- | --- | --- | --- | --- |
| 520 nM | O=C(Nc1nnc(-c2ccco2)o1)c1cc(-c2ccccc2)nc2nc(N3CCCCC3)sc12 [Compound Ib-1, N-[5-(2-Furyl)-1,3,4-oxadiazol-2-yl]-5-phenyl-2-piperidino-7-thiazolo[4,5-b]pyridinecarboxamide] | 52% | 96% | > 100% | – | – |
| – | CCCCOC(=O)c1ccc(-c2cccc(C(=O)Nc3nnc(-c4ccco4)o3)c2)cc1 [Compound Ia-23, 4′-n-Butoxycarbonyl-N-[5-(2-furyl)-1,3,4-oxadiazol-2-yl]-3-biphenylcarboxamide] | – | – | – | 55% | – |
| – | CC(C)(C)c1ccc(-c2cccc(C(=O)Nc3nnc(-c4ccco4)o3)c2)cc1 [Compound Ia-14, 4′-tert-Butyl-N-[5-(2-furyl)-1,3,4-oxadiazol-2-yl]-3-biphenylcarboxamide] | – | – | 57% | – | 57% |
